# Active and inactive are the calls of the source.
# Columns and labels:
# [1] = target: Cyclin-dependent kinase 8 (Homo sapiens, UniProt P49336); test: Navigating the Kinome. Panel member name: CDK8; assay type: functional
# [2] = target: Cyclin-dependent kinase 5 (Homo sapiens, UniProt Q00535); assay type: functional;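 further: CDK5 measured as one member of a kinase profiling panel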
# [3] = target: Dual specificity protein kinase CLK4 (Homo sapiens, UniProt Q9HAZ1); assay type: functional
# [4] = target: cAMP-dependent protein kinase catalytic subunit alpha (Homo sapiens, UniProt P17612); assay type: functional
# [5] = target: T1, Interleukin-1 receptor-associated kinase 4 (Homo sapiens, UniProt Q9NWZ3); assay type: functional
# T1 sequence (Q9NWZ3 whole entry): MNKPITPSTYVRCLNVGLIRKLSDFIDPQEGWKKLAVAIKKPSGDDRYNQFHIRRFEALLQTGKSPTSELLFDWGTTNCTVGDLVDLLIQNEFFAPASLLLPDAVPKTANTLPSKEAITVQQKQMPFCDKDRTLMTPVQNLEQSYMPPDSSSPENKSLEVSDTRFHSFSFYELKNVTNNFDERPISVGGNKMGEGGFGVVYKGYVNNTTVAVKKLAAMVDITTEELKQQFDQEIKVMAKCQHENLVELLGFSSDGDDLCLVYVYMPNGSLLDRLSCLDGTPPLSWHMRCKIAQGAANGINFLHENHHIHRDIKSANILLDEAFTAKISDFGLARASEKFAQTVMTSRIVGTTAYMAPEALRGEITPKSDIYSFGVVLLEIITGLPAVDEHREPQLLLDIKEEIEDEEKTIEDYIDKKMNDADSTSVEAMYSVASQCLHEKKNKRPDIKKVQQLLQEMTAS
# [6] = target: Cyclin-dependent kinase 9 (Homo sapiens, UniProt P50750); assay type: functional;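 further: value from the CDK9 entry of a kinome-spanning kinase panel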
# Chain of Cyclin-dependent kinase 9 (P50750 whole entry): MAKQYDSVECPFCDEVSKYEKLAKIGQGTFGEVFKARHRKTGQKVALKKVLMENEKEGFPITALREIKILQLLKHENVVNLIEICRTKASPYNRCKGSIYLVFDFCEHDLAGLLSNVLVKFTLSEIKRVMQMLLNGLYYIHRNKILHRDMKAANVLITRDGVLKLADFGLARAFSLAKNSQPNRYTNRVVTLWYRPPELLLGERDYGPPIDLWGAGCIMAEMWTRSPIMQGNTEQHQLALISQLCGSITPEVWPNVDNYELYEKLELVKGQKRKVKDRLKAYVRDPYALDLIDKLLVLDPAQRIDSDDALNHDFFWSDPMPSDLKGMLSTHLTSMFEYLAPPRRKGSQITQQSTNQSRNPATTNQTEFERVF
# [7] = target: Serine/threonine-protein kinase pim-1 (Homo sapiens, UniProt P11309); assay type: functional
# Chain of Serine/threonine-protein kinase pim-1 (P11309 whole entry): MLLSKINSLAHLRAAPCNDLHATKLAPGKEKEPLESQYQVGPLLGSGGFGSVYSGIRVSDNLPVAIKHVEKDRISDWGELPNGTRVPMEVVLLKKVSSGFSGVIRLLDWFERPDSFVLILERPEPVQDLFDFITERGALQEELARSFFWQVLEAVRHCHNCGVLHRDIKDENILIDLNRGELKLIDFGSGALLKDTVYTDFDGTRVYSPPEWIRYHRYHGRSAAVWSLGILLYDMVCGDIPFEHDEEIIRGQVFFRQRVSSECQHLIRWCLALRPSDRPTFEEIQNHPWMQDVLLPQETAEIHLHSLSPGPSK
# [8] = target: Mitogen-activated protein kinase kinase kinase kinase 4 (Homo sapiens, UniProt O95819); assay type: functional
# [9] = target: Homeodomain-interacting protein kinase 2 (Homo sapiens, UniProt Q9H2X6); assay type: functional;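 further: measured within a kinome-wide kinase profiling panel, HIPK2 being one panel member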
# [10] = target: Cyclin-dependent kinase 7 (Homo sapiens, UniProt P50613); assay type: functional;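 further: value comes from a kinome-wide kinase profiling panel in which CDK7 is one member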
# [11] = target: Cell division cycle 7-related protein kinase (Homo sapiens, UniProt O00311); assay type: functional;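 further: value obtained from a kinome-wide kinase panel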
# Chain of Cell division cycle 7-related protein kinase (O00311 whole entry): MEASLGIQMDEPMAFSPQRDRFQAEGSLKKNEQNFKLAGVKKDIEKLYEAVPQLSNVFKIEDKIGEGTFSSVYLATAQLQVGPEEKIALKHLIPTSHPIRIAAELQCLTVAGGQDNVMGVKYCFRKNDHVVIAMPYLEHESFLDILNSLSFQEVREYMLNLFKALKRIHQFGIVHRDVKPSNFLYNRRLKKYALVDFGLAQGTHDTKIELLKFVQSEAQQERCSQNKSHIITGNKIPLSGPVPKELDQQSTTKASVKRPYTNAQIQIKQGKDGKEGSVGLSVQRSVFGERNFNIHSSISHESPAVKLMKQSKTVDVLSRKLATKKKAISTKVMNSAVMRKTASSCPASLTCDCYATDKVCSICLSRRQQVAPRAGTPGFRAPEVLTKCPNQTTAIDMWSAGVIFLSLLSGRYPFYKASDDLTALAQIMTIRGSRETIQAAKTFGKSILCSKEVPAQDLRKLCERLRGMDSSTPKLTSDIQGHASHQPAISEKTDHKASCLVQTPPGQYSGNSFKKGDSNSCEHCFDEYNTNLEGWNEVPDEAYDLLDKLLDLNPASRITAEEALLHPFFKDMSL
# [12] = target: Multidrug resistance protein CDR1 (Candida albicans, UniProt P43071); test: CaCDR1 efflux pump inhibitors in yeast, dose response, S. cerevisiae AD1-8u, singleplex, Cherry Pick1 hits (AID 588606); assay type: functional
# BJ [13] = test: cytotoxicity toward BJ-TERT fibroblasts, dose response, cell-based, RAS-independent, luminescence (AID 1933); assay type: functional, Homo sapiens; details: Homo sapiens, BJ
# Orexin receptor type 2 [14] = target: T2, Orexin receptor type 2 (Homo sapiens, UniProt O43614); test: Counterscreen assay for antagonists of the orexin 1 receptor (OX1R; HCRTR1): Fluorescence-based cell-based dose response assay for antagonists of the orexin 2 receptor (OX2R; HCRTR2), run by assay provider.; assay type: functional
# T2 sequence (O43614 whole entry): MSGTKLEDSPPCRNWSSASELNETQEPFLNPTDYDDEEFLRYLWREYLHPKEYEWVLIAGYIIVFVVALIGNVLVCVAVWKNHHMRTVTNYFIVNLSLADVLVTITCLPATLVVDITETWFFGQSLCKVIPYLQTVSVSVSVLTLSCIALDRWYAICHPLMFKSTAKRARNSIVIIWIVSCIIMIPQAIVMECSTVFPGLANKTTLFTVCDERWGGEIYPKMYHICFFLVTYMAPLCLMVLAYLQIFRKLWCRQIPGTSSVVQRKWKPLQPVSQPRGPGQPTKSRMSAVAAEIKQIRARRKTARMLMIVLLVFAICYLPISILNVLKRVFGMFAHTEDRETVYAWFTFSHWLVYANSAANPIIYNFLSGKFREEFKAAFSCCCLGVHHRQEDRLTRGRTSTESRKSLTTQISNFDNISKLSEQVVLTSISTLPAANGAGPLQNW
# [15] = Luminescence Cell-Based Dose Retest to Confirm Inhibitors of Cancer Stem Cells. [Related pubchem assays (depositor defined):AID2717, AID2721]; assay type: functional; details: Homo sapiens
# CHO-K1 = test: Counterscreen for antagonists of the orexin 1 receptor (OX1R; HCRTR1): Homogeneous time resolved fluorescence (HTRF)-based cell-based dose response assay to identify antagonists of the parental CHO-K1 cell line. [Related pubchem assays (depositor defined):AID434989, AID435008, AID463079, AID485270, AID492963, AID492964, AID492965, AID493232, AID504699, AID504701]; assay type: functional; details: Cricetulus griseus;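 further: potency for inhibition of ATP-stimulated IP1 production as antagonists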
# [16] = target: T3, Orexin/Hypocretin receptor type 1 (Homo sapiens, UniProt O43613); test: Homogeneous Time Resolved Fluorescence (HTRF)-based cell-based high throughput dose response assay for antagonists of the orexin 1 receptor (OX1R; HCRTR1). [Related pubchem assays (depositor defined):AID434989, AID435008, AID463079, AID485270, AID492963, AID492964, AID492965, AID493232, AID504717, AID504718]; assay type: functional
# T3 sequence (O43613 whole entry): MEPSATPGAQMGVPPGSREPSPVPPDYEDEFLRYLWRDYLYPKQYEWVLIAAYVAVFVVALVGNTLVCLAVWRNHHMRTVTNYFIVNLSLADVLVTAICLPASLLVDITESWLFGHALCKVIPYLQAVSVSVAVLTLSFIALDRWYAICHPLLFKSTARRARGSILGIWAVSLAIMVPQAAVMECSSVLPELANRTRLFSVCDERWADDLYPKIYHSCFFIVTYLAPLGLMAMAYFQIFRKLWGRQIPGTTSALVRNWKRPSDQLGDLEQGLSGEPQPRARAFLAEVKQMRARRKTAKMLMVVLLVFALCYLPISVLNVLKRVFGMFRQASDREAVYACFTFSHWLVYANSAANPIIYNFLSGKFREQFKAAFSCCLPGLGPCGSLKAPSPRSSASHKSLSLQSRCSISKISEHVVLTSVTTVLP
# [17] = cytotoxicity toward DRD oncogenic fibroblasts, dose response, cell-based, non-viral oncogenic, luminescence (AID 1934); assay type: functional; details: Homo sapiens
# BJ [18] = test: cytotoxicity toward BJ-TERT-LT-ST fibroblasts, dose response, cell-based, RAS-independent, luminescence (AID 1935); assay type: functional, Homo sapiens; details: Homo sapiens, BJ;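 further: BJ fibroblasts immortalized with TERT plus LT and ST oncogenes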
# BJ [19] = test: cells; assay type: functional, cell-based, Homo sapiens; details: Homo sapiens, BJ
# [20] = cytotoxicity in HEK-293T cells, dose response, cytotoxicity control for TCR NF-kB inhibitor project, luminescence, T-cell screen hits (AID 489026); assay type: functional, cell-based;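 further: cells exposed to compound about 14 hours before the viability readout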
# Orexin receptor type 2 [21] = target: T2, Orexin receptor type 2; test: Counterscreen assay for antagonists of the orexin 1 receptor (OX1R; HCRTR1): Homogeneous Time Resolved Fluorescence (HTRF)-based cell-based dose response assay for antagonists of the orexin 2 receptor (OX2R; HCRTR2), run by assay provider.; assay type: functional
# [22] = target: T3, Orexin/Hypocretin receptor type 1; test: Fluorescence-based cell-based high throughput dose response assay for antagonists of the orexin 1 receptor (OX1R; HCRTR1). [Related pubchem assays (depositor defined):AID434989, AID435008, AID463079, AID485270, AID492963, AID492964, AID492965, AID493232, AID504717, AID504718]; assay type: functional
# Paired box protein Pax-8 = Paired box protein Pax-8 (Homo sapiens, UniProt Q06710); test: inhibitors of PAX8-driven TPO luciferase reporter, dose response, RMG-I cells, cherry-pick (AID 687027); assay type: functional, cell-based;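 further: luciferase reporter driven by Pax8 target thyroperoxidase promoter measured by SteadyGlo luminescence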
# [23] = Counterscreen for antagonists of the orexin 1 receptor (OX1R; HCRTR1): Fluorescence-based cell-based high throughput dose response assay to identify antagonists of the parental CHO cell line. [Related pubchem assays (depositor defined):AID434989, AID435008, AID463079, AID485270, AID492963, AID492964, AID492965, AID493232, AID504699, AID504701]; assay type: functional
# [24] = target: Serine/threonine-protein kinase pim-3 (Homo sapiens, UniProt Q86V86); assay type: functional;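 further: value obtained as one member of a broad kinase panel profiling effort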
# [25] = target: Platelet-derived growth factor receptor beta (Homo sapiens, UniProt P09619); assay type: functional;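 further: value comes from a kinome panel, with PDGFRB tested as one panel member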
# [26] = target: T4, Receptor-type tyrosine-protein kinase FLT3 (Homo sapiens, UniProt P36888); assay type: functional;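 further: FLT3 was tested as one member of a kinome-wide kinase panel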
# T4 sequence (P36888 whole entry): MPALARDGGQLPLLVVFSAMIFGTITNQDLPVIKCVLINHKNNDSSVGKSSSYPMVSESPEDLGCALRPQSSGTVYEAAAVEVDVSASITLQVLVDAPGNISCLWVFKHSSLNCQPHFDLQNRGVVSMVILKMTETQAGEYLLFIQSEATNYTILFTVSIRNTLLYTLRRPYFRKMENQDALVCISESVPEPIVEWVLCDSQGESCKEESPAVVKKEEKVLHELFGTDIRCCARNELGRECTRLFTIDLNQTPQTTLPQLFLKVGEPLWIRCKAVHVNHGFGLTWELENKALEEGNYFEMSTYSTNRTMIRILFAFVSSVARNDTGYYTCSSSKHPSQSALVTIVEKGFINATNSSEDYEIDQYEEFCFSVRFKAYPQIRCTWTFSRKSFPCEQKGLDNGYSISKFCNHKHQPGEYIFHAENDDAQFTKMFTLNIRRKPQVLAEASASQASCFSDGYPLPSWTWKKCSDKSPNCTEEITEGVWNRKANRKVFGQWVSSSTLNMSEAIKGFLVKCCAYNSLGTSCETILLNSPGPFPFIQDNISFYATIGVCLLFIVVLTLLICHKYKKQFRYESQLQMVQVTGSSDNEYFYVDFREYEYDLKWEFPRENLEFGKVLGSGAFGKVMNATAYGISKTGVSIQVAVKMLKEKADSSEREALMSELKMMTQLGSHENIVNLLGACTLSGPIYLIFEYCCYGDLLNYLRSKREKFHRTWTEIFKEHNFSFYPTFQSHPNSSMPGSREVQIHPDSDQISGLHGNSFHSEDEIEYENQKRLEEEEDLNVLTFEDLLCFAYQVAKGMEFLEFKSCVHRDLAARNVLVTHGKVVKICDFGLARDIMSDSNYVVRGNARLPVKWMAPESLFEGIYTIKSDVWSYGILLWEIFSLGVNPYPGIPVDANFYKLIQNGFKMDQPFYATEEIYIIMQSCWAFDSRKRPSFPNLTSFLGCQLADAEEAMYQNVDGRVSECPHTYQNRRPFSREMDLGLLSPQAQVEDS
# [27] = target: Cyclin-dependent kinase 19 (Homo sapiens, UniProt Q9BWU1); test: Navigating the Kinome. Panel member name: CDC2L6; assay type: functional
# Aurora kinase A = Aurora kinase A (Homo sapiens, UniProt O14965); assay type: functional;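 further: value from the Navigating the Kinome kinase panel profiling, panel entry STK6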
# [28] = target: Dual specificity tyrosine-phosphorylation-regulated kinase 1A (Homo sapiens, UniProt Q13627); assay type: functional;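 further: measured against DYRK1A as one member of a broad kinome profiling panel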
# [29] = target: Serine/threonine-protein kinase PLK1 (Homo sapiens, UniProt P53350); assay type: functional;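 further: PLK1 measured as one member of a kinome-wide profiling panel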
# [30] = target: RAC-gamma serine/threonine-protein kinase (Homo sapiens, UniProt Q9Y243); assay type: functional
# Chain of RAC-gamma serine/threonine-protein kinase (Q9Y243 whole entry): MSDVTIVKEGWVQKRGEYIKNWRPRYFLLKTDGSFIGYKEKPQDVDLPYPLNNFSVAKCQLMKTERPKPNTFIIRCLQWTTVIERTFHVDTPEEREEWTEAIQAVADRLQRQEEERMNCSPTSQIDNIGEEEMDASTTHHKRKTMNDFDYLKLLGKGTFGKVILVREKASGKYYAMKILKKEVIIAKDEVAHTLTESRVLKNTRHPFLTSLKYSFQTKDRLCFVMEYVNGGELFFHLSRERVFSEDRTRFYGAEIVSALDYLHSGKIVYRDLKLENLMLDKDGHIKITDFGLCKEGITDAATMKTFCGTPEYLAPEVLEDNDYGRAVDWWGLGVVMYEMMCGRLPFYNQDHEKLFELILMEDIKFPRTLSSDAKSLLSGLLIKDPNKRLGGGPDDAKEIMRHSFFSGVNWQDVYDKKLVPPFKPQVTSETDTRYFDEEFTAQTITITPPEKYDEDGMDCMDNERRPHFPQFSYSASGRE
# [31] = target: Serine/threonine-protein kinase PLK4 (Homo sapiens, UniProt O00444); assay type: functional;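 further: PLK4 measured as one member of a kinome-wide kinase profiling panel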
# Chain of Serine/threonine-protein kinase PLK4 (O00444 whole entry): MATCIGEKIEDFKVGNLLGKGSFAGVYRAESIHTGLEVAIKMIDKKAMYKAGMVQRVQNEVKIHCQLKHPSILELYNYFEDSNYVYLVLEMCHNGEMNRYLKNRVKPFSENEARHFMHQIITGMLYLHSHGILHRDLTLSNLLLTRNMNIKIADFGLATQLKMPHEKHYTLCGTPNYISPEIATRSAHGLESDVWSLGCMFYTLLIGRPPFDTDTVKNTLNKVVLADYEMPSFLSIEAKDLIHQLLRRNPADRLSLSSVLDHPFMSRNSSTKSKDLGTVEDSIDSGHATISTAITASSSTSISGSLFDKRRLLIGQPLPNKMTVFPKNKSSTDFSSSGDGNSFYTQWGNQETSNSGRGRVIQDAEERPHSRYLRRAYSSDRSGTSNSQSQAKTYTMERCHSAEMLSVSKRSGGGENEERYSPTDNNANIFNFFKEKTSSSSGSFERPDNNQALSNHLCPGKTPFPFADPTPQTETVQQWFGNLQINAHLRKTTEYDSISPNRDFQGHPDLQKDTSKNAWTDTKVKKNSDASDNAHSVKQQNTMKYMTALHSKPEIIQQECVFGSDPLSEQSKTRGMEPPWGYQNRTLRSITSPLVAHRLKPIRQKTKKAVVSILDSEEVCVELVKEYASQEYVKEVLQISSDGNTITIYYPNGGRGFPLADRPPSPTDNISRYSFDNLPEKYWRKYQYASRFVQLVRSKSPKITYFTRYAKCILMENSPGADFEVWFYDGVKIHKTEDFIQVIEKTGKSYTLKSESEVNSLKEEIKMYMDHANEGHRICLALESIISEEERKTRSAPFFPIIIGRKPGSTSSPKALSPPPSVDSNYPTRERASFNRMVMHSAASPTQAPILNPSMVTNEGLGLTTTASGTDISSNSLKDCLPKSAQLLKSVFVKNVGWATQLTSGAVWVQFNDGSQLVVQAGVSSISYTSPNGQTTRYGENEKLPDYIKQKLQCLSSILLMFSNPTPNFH
# Aurora kinase B = Aurora kinase B (Homo sapiens, UniProt Q96GD4); assay type: functional
# [32] = target: Fibroblast growth factor receptor 1 (Homo sapiens, UniProt P11362); assay type: functional
# Chain of Fibroblast growth factor receptor 1 (P11362 whole entry): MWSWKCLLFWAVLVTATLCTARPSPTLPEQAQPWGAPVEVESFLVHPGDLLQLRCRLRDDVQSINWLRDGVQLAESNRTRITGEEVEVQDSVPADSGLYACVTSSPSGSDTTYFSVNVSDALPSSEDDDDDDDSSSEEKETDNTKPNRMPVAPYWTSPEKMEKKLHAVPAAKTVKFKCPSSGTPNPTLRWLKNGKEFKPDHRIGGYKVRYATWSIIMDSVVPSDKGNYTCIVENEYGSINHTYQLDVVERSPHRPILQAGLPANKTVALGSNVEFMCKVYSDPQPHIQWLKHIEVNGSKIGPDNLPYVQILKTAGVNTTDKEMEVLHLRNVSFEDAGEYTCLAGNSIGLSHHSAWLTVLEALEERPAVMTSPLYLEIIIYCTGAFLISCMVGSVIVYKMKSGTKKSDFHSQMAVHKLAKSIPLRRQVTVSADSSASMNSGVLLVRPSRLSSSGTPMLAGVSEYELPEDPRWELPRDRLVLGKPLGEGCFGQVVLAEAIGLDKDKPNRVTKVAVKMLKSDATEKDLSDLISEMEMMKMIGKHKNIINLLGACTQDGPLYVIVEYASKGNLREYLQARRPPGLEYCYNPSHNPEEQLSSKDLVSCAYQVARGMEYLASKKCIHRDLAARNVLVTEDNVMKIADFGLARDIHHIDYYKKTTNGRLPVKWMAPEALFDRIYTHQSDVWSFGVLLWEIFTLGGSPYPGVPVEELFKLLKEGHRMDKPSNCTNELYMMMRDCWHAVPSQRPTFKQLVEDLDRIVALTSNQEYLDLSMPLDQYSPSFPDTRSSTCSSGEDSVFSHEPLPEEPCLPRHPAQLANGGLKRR
# [33] = target: Macrophage colony-stimulating factor 1 receptor (Homo sapiens, UniProt P07333); assay type: functional;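 further: value comes from the Navigating the Kinome screening panel, CSF1R member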
# [34] = target: Serine/threonine-protein kinase PLK3 (Homo sapiens, UniProt Q9H4B4); assay type: functional
# [35] = target: Protein kinase C theta type (Homo sapiens, UniProt Q04759); test: Navigating the Kinome. Panel member name: PRKCQ; assay type: functional
# Insulin receptor = Insulin receptor (Homo sapiens, UniProt P06213); assay type: functional;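 further: insulin receptor kinase tested as one member of a kinome-wide kinase panel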
# [36] = target: RAC-alpha serine/threonine-protein kinase (Homo sapiens, UniProt P31749); assay type: functional;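 further: AKT1 affinity measured as one member of a kinome-wide kinase profiling panel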
# [37] = target: Vascular endothelial growth factor receptor 2 (Homo sapiens, UniProt P35968); assay type: functional
# [38] = target: Serine/threonine-protein kinase Chk1 (Homo sapiens, UniProt O14757); assay type: functional;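 further: measured as one member of a kinome-wide kinase profiling panel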
# [39] = target: Mitogen-activated protein kinase 12 (Homo sapiens, UniProt P53778); assay type: functional;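 further: measured as one member of a kinome-wide kinase profiling panel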
# [40] = target: Mitogen-activated protein kinase 9 (Homo sapiens, UniProt P45984); assay type: functional;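 further: value from a kinome panel profiling assay, MAPK9 panel entry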
# Chain of Mitogen-activated protein kinase 9 (P45984 whole entry): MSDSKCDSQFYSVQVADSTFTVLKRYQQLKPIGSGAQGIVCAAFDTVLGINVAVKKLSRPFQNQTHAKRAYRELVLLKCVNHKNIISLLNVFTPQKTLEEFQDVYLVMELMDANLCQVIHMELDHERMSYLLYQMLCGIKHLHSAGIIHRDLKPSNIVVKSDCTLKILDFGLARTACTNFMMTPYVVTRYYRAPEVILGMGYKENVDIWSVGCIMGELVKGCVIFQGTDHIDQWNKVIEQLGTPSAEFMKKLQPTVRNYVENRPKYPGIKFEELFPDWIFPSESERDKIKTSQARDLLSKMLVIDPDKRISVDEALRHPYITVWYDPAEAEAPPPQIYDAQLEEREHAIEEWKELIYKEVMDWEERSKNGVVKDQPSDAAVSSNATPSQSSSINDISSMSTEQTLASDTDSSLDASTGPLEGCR
# Chain of Dual specificity protein kinase CLK4 (Q9HAZ1 whole entry): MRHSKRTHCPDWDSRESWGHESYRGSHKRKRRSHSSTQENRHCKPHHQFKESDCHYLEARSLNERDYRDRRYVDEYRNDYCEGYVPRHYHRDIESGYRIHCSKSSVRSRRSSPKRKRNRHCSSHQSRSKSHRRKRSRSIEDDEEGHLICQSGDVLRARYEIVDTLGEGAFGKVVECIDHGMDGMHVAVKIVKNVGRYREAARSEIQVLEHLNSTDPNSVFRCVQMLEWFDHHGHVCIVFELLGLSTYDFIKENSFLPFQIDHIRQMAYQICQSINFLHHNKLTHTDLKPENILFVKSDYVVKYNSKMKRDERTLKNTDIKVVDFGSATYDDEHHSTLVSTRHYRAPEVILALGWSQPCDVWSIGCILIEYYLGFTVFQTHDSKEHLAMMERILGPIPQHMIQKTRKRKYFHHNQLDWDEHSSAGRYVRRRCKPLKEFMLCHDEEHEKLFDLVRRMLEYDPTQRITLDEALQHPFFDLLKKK
smiles,measurement,setting,value
CC(C)(O)c1c(-c2ccccc2)n[nH]c(=O)c1N,Ki,[1],50.1 µM (active)
same,Ki,[2],50.1 µM (active)
same,Ki,[3],31.6 µM (active)
NC(=O)c1ccccc1Nc1nc(Nc2ccccc2)ncc1C(F)(F)F,Ki,[4],0.2 µM (active)
same,Ki,[5],0.0398 µM (active)
same,Ki,[6],0.0398 µM (active)
same,Ki,[7],2.51 µM (active)
same,Ki,[8],0.0251 µM (active)
same,Ki,[9],0.00398 µM (active)
same,Ki,[10],0.00501 µM (active)
same,Ki,[11],0.00501 µM (active)
COc1cc2c(cc1NC(=O)CSc1nnc(Cc3cccs3)n1Cc1ccco1)oc1ccccc12,EC50,[12],0.011 µM (active)
CCn1c2ccccc2c2cc(NC(=O)c3cc(OC)cc(OC)c3)ccc21,EC50,BJ [13],0.431 µM (active)
same,IC50,Orexin receptor type 2 [14],21.7 µM (inactive)
same,AC50,[15],< 0.16 µM (active)
same,IC50,CHO-K1,> 66.2 µM (inactive)
same,IC50,[16],0.554 µM (active)
same,EC50,[17],0.545 µM (active)
same,EC50,BJ [18],0.365 µM (inconclusive)
same,EC50,BJ [19],22.8 µM (active)
same,IC50,[20],> 80 µM (inactive)
same,IC50,Orexin receptor type 2 [21],> 50 µM (inactive)
same,IC50,[22],1.38 µM (active)
same,AC50,Paired box protein Pax-8,4.74 µM (active)
same,IC50,[23],> 49.8 µM (inactive)
O=C(Nc1ccccc1)Nc1ccccn1,Ki,[24],50.1 µM (active)
same,Ki,[25],> 79.4 µM (inactive)
same,Ki,[4],> 50.1 µM (inactive)
same,Ki,[6],> 63.1 µM (inactive)
same,Ki,[7],79.4 µM (active)
same,Ki,[26],3.16 µM (active)
same,Ki,[27],> 100 µM (inactive)
same,Ki,Aurora kinase A,> 63.1 µM (inactive)
same,Ki,[28],> 79.4 µM (inactive)
same,Ki,[29],> 79.4 µM (inactive)
same,Ki,[30],> 100 µM (inactive)
same,Ki,[31],> 39.8 µM (inactive)
same,Ki,Aurora kinase B,79.4 µM (active)
same,Ki,[32],> 50.1 µM (inactive)
same,Ki,[33],> 63.1 µM (inactive)
same,Ki,[34],> 79.4 µM (inactive)
same,Ki,[35],> 100 µM (inactive)
same,Ki,Insulin receptor,> 50.1 µM (inactive)
same,Ki,[36],> 79.4 µM (inactive)
same,Ki,[37],> 100 µM (inactive)
same,Ki,[38],> 79.4 µM (inactive)
CN(C)CCCN(C)C(=O)C1Cc2[nH]cnc2C2(CCCCC2)N1 (stereo not drawn),Ki,[39],3.16 µM (active)
same,Ki,[40],2.51 µM (active)
